Conditions: pampa; 60.0 min; 50.0 µM
For COC(=O)C[C@@H](C(=O)OC)n1cnc2c(c(-c3ccccc3)cn2Cc2ccc(Br)cc2)c1=N, the Papp was less than 1 ×10⁻⁶ cm/s. With CC#CC(=O)N1CCC[C@H]1c1nc(-c2ccc(C(=O)Nc3ccccn3)cc2)c2c(N)nccn12 the Papp was less than 1 ×10⁻⁶ cm/s. Compound Nc1ccc(-c2ccc3ncc4ccc(=O)n(-c5cccc(C(F)(F)F)c5)c4c3c2)cn1 has a Papp greater than 300 ×10⁻⁶ cm/s. CC(C)NC(=O)COc1cccc(-c2nc(Nc3ccc4[nH]ncc4c3)c3ccccc3n2)c1 showed a Papp of 226 ×10⁻⁶ cm/s. COc1c(C)c2c(c(O)c1C/C=C(\C)CCC(=O)O)C(=O)OC2 gave a Papp of less than 1 ×10⁻⁶ cm/s. Compound CC(=O)OCC1=C(C(=O)O)N2C(=O)C(NC(=O)Cc3cccs3)C2SC1 (configuration not stated) has a Papp of 2 ×10⁻⁶ cm/s. COc1cccc2c1C(=O)c1c(O)c3c(c(O)c1C2=O)C[C@@](O)(C(C)=O)C[C@@H]3O[C@H]1C[C@H](N)[C@H](O)[C@H](C)O1 showed a Papp of 8 ×10⁻⁶ cm/s. NCC1(CC(=O)O)CCCCC1 gave a Papp of less than 1 ×10⁻⁶ cm/s. With Clc1ccc(CN[C@H]2CCN(c3ncc(Br)cn3)C2)c(Cl)c1 the Papp was greater than 300 ×10⁻⁶ cm/s. Cc1onc(-c2c(F)cccc2Cl)c1C(=O)N[C@@H]1C(=O)N2[C@@H]1SC(C)(C)[C@@H]2C(=O)O showed a Papp of 28 ×10⁻⁶ cm/s. Work on CNC1CCC(N(Cc2ccc(OC)c(-c3ccc(C#N)cc3)c2)C(=O)c2sc3ccccc3c2Cl)CC1 (configuration not stated) yielded a Papp of 234 ×10⁻⁶ cm/s. Oc1c(Cl)cc(Cl)cc1Sc1cc(Cl)cc(Cl)c1O gave a Papp of 288 ×10⁻⁶ cm/s. COc1cc([C@@H]2c3cc4c(cc3[C@@H](O[C@@H]3O[C@@H]5CO[C@@H](C)O[C@@H]5[C@H](O)[C@@H]3O)[C@H]3COC(=O)[C@H]23)OCO4)cc(OC)c1O gave a Papp of 3 ×10⁻⁶ cm/s. Compound Cn1nnnc1SCC1=C(C(=O)O)N2C(=O)[C@@H](NC(=O)[C@H](OC=O)c3ccccc3)[C@H]2SC1 has a Papp of less than 1 ×10⁻⁶ cm/s. Compound CCOc1ccc(C2C(C(=O)Nc3ccccc3OC)=C(C)Nc3c(C(=O)Nc4cccc(C)c4)cnn32)cc1 (configuration not stated) has a Papp of 45 ×10⁻⁶ cm/s. Compound O=C(CBr)N1CC([N+](=O)[O-])([N+](=O)[O-])C1 has a Papp of less than 1 ×10⁻⁶ cm/s. COCCn1cnc2c(c(-c3ccccc3)cn2Cc2ccccc2)c1=N gave a Papp of 139 ×10⁻⁶ cm/s. CCOC(=N)c1nc2ccc3ncnc(Nc4cc(F)c(F)cc4Cl)c3c2s1 showed a Papp of 1.2 ×10⁻⁶ cm/s. For CC(=O)Nc1ccc(OC(=O)c2ccccc2OC(C)=O)cc1, the Papp was 27 ×10⁻⁶ cm/s. CC(OC(=O)NCC1(CC(=O)O)CCCCC1)OC(=O)C(C)C (configuration not stated) showed a Papp of 143 ×10⁻⁶ cm/s. NC(=O)C1=C(O)[C@@]2(O)C(=O)C3=C(O)c4c(O)cccc4C[C@H]3C[C@H]2CC1=O gave a Papp of 9 ×10⁻⁶ cm/s. C[n+]1c2cc(N)ccc2cc2ccc(N)cc21 showed a Papp of less than 1 ×10⁻⁶ cm/s. In the case of O=C(NC1CCC(O)CC1)c1ccc(-c2ncc3cnc(-c4cccc(F)c4)cn23)cc1 (configuration not stated), the Papp is reported as 59 ×10⁻⁶ cm/s. O=C1NC(Nc2ccccc2)=N/C1=C\c1ccc2c(c1)OCO2 showed a Papp of less than 1 ×10⁻⁶ cm/s. Work on CC(=O)Nc1c2sscc-2n(C)c1=O yielded a Papp of 16 ×10⁻⁶ cm/s. For O=C(NCCCN1CCCC1=O)c1ccc(-c2ncc3cnc(-c4ccccc4)cn23)cc1, the Papp was 31 ×10⁻⁶ cm/s. With CC(=O)Nc1cccc(-n2c(=O)n(C3CC3)c(=O)c3c(Nc4ccc(I)cc4F)n(C)c(=O)c(C)c32)c1 the Papp was 259 ×10⁻⁶ cm/s. With CCCCOC(=O)NS(=O)(=O)c1sc(CC(C)C)cc1-c1ccc(Cn2ccnc2)cc1 the Papp was 180 ×10⁻⁶ cm/s. For NC1CCN(C(=O)C2CCCN(c3nc(-c4ccccc4)nc4c3CCC4)C2)CC1 (configuration not stated), the Papp was 179 ×10⁻⁶ cm/s. In the case of Cc1cc(-c2nc(C(=O)Nc3cn(C4CCOCC4)nc3C(N)=O)co2)ccn1, the Papp is reported as 43 ×10⁻⁶ cm/s. With CON(C)Cc1ccc(O)c2c1C[C@H]1C[C@H]3[C@H](N(C)C)C(=O)C(C(N)=O)=C(O)[C@@]3(O)C(=O)C1=C2O the Papp was 2 ×10⁻⁶ cm/s. Work on COc1cc2c(cc1OC)[C@@H](Cc1cc(OC)c(OC)c(OC)c1)[N+](C)(CCCOC(=O)CC/C=C/CCC(=O)OCCC[N+]1(C)CCc3cc(OC)c(OC)cc3[C@H]1Cc1cc(OC)c(OC)c(OC)c1)CC2 (some centres not stated) yielded a Papp of less than 1 ×10⁻⁶ cm/s. Compound N=c1c2c(-c3ccccc3)cn(Cc3ccc(Br)cc3)c2ncn1CCCCO has a Papp of 208 ×10⁻⁶ cm/s. CCc1ccc(C2C(C(=O)Nc3ccccc3OC)=C(C)Nc3c(C(=O)Nc4ccc(C)cc4)cnn32)cc1 (configuration not stated) gave a Papp of 26 ×10⁻⁶ cm/s. Compound Nc1nc(/C(=C/CC(=O)O)C(=O)N[C@@H]2C(=O)N3C(C(=O)O)=CCS[C@H]23)cs1 has a Papp of 18 ×10⁻⁶ cm/s. N=c1c2c(-c3ccccc3)c(-c3ccccc3)n(Cc3ccccc3)c2ncn1CCN gave a Papp of 78 ×10⁻⁶ cm/s. In the case of CC1=C(C(=O)O)N2C(=O)C(NC(=O)C(N)C3=CCC=CC3)C2SC1 (configuration not stated), the Papp is reported as less than 1 ×10⁻⁶ cm/s. With COC(=O)c1ccccc1O[C@@H]1O[C@H](CO[C@@H]2OC[C@@H](O)[C@H](O)[C@H]2O)[C@@H](O)[C@H](O)[C@H]1O the Papp was less than 1 ×10⁻⁶ cm/s. In the case of CNC(=O)c1cc(Oc2ccc(NC(=O)Nc3cc(C(C)(C)C)nn3-c3ccc4ncccc4c3)c(F)c2)ccn1, the Papp is reported as 210 ×10⁻⁶ cm/s. N=c1c2c(-c3ccccc3)cn(Cc3ccccc3)c2ncn1C1CCC(O)CC1 (configuration not stated) gave a Papp of 217 ×10⁻⁶ cm/s. Compound COCCNCCCn1c(C(=O)CF)c(-c2ccc(C)cc2)c2c(N)ncnc21 has a Papp of 20 ×10⁻⁶ cm/s. Compound CC(C)c1cc(-c2n[nH]c(=O)n2-c2ccc3c(ccn3C)c2)c(O)cc1O has a Papp of 79.5 ×10⁻⁶ cm/s. N=c1c2c(-c3ccccc3)cn(Cc3ccccc3)c2ncn1CCCCCO gave a Papp of 89 ×10⁻⁶ cm/s. Compound CON=C(C(=O)N[C@@H]1C(=O)N2C(C(=O)O)=C(Cn3ccc(=N)n3CCO)CS[C@H]12)c1csc(N)n1 has a Papp of less than 1 ×10⁻⁶ cm/s. For O=C(O)C[C@H]1CCc2c1[nH]c1ccc(OCc3ccc(C4CCCC4)c(C(F)(F)F)c3)cc21, the Papp was 46 ×10⁻⁶ cm/s. With CC1(C)S[C@@H]2[C@H](NC(=O)COc3ccccc3)C(=O)N2[C@H]1C(=O)O the Papp was 6 ×10⁻⁶ cm/s. With CC(=O)Nc1ccc(C(=O)NC(C)(C)C)cc1 the Papp was 2 ×10⁻⁶ cm/s. Work on Cc1ccc(NC(=O)c2ccc(CN3CCN(C)CC3)cc2)cc1Nc1nc(-c2cccnc2)cs1 yielded a Papp of 100 ×10⁻⁶ cm/s. For CC1(C)S[C@@H]2[C@H](NC(=O)C3(N)CCCCC3)C(=O)N2[C@H]1C(=O)O, the Papp was 54 ×10⁻⁶ cm/s. Compound CC(C)(C)C(=O)OCOC(=O)C1N2C(=O)CC2S(=O)(=O)C1(C)C (configuration not stated) has a Papp of 37 ×10⁻⁶ cm/s. CCOC(=O)c1cc(=O)c2c(OCC(COc3cccc4oc(C(=O)OCC)cc(=O)c34)OC(=O)[C@@H](N)CCCCN)cccc2o1 gave a Papp of less than 1 ×10⁻⁶ cm/s. Compound O=C1NCN(c2ccccc2)C12CCN(CCCC(c1ccc(F)cc1)c1ccc(F)cc1)CC2 has a Papp of 42 ×10⁻⁶ cm/s. CCCN(CCC)C1CCc2cccc(O)c2C1 (configuration not stated) showed a Papp of 88 ×10⁻⁶ cm/s. Work on CC1=C(C(=O)O)N2C(=O)[C@@H](N)[C@H]2SC1 yielded a Papp of less than 1 ×10⁻⁶ cm/s. In the case of COc1ccc(Cn2c(-c3ccccc3)c(-c3ccccc3)c3c(=N)n(CCCCO)cnc32)cc1, the Papp is reported as 279 ×10⁻⁶ cm/s. N=c1c2c(-c3ccccc3)c(-c3ccccc3)n(CCc3ccccc3)c2ncn1CCCCO showed a Papp of 218 ×10⁻⁶ cm/s. For CCCCCCCCc1ccc(CCC(N)(CO)CO)cc1, the Papp was less than 1 ×10⁻⁶ cm/s. For O=C(O)[C@@H]1C[C@H]2C[C@@H](CCc3nn[nH]n3)CC[C@H]2CN1, the Papp was 3 ×10⁻⁶ cm/s. Cc1ccc(-n2c(C)cc(-c3nnc4n3CCCCC4)c2C)cc1 showed a Papp of 192 ×10⁻⁶ cm/s. N=c1c2c(-c3ccccc3)cn(Cc3ccccc3)c2ncn1[C@@H]1CCCC[C@H]1N showed a Papp of 101 ×10⁻⁶ cm/s. With CC(=O)c1cc(C(=O)N[C@@H](C)Cn2ccc(-c3ccc(C#N)c(Cl)c3)n2)[nH]n1 the Papp was 164 ×10⁻⁶ cm/s. Work on Cc1ccccc1CN1CCn2c(nn(CC3COc4ccccc4O3)c2=O)C1=O (configuration not stated) yielded a Papp of 57.7 ×10⁻⁶ cm/s. CN1CCN(C(=O)Cc2c[nH]c3ncc(-c4ccccc4Oc4ccccc4)cc23)CC1 gave a Papp of 299 ×10⁻⁶ cm/s. Work on CC(C)CN(CC(=O)N(CCCN1CCCC1=O)CC(N)=O)C(=O)CNCCc1ccccc1F yielded a Papp of less than 1 ×10⁻⁶ cm/s. For Cc1cccc(C#Cc2cc(F)cc(C#N)c2)n1, the Papp was 209 ×10⁻⁶ cm/s. CC(C)CNc1ccnc(NCc2csc(-c3ccccc3)n2)n1 showed a Papp of 228 ×10⁻⁶ cm/s. In the case of O=C(c1ccc(-c2ncc3cnc(-c4ccccc4)cn23)cc1)N1CCS(=O)(=O)CC1, the Papp is reported as 20 ×10⁻⁶ cm/s. COc1ccc(S(=O)(=O)Nc2cccnc2Nc2ccc(O)cc2)cc1 gave a Papp of 13 ×10⁻⁶ cm/s. Nc1ccc(/C=C/C(=O)NCc2cc3cc(-c4ccc(C(=O)N5CCC(F)(F)CC5)cc4)cc(-c4ccc(F)cc4)c3o2)cn1 gave a Papp of less than 1 ×10⁻⁶ cm/s. In the case of CO/N=C(/C(=O)N[C@@H]1C(=O)N2C(C(=O)O)=C(COC(N)=O)CS[C@H]12)c1ccco1, the Papp is reported as 2 ×10⁻⁶ cm/s. Work on CC=CC1=C(C(=O)O)N2C(=O)[C@@H](NC(=O)[C@H](N)c3ccc(O)cc3)[C@H]2SC1 yielded a Papp of 282 ×10⁻⁶ cm/s. For C[N+](C)([O-])CCNc1ccc(NCC[N+](C)(C)[O-])c2c1C(=O)c1c(O)ccc(O)c1C2=O, the Papp was 40 ×10⁻⁶ cm/s. With CC[C@@H]1CN(C(=O)NCC(F)(F)F)C[C@@H]1c1cnc2cnc3[nH]ccc3n12 the Papp was 2 ×10⁻⁶ cm/s. Compound CC(C)N(CCCNC(=O)Nc1ccc(C(C)(C)C)cc1)C[C@H]1O[C@@H](n2ccc3c(N)ncnc32)[C@H](O)[C@@H]1O has a Papp of less than 1 ×10⁻⁶ cm/s. With COCC1=C(C(=O)O)N2C(=O)[C@@H](NC(=O)/C(=N\OC)c3csc(N)n3)[C@H]2SC1 the Papp was less than 1 ×10⁻⁶ cm/s. O=S(=O)(Nc1cc(Cl)c(Oc2cnc3ccccc3c2)c(Cl)c1)c1ccc(Cl)cc1Cl gave a Papp of 24 ×10⁻⁶ cm/s. With COc1ccccc1NC(=O)C1=C(C)Nc2c(C(=O)Nc3cccc(C)c3)cnn2C1c1ccccc1Cl (configuration not stated) the Papp was 160 ×10⁻⁶ cm/s. CC(Cc1ccc2c(c1)OCO2)NCC(O)c1ccc(O)c(O)c1 (configuration not stated) showed a Papp of 6 ×10⁻⁶ cm/s. Work on CC(C)C[C@H]1C(=O)O[C@H](Cc2ccc(N3CCOCC3)cc2)C(=O)N(C)[C@@H](CC(C)C)C(=O)O[C@H](C)C(=O)N(C)[C@@H](CC(C)C)C(=O)O[C@H](Cc2ccc(N3CCOCC3)cc2)C(=O)N(C)[C@@H](CC(C)C)C(=O)O[C@H](C)C(=O)N1C yielded a Papp of less than 1 ×10⁻⁶ cm/s. Compound C=CC1=C(C(=O)O)N2C(=O)[C@@H](NC(=O)/C(=N\OCC(=O)O)c3csc(N)n3)[C@H]2SC1 has a Papp of 2 ×10⁻⁶ cm/s. In the case of CSc1nc(N)cc(Oc2ccc(-c3nc(Nc4cccc(C(F)(F)F)c4)n[nH]3)cc2)n1, the Papp is reported as 53.8 ×10⁻⁶ cm/s. With Cc1nc2c([nH]1)CCN(C(=O)c1ccc(NC(=O)c3ccccc3-c3ccccc3)cc1)c1ccccc1-2 the Papp was 98 ×10⁻⁶ cm/s. CC(C)[C@]12O[C@H]1[C@@H]1O[C@]13[C@]1(O[C@H]1C[C@H]1C4=C(CC[C@@]13C)C(=O)OC4)[C@@H]2O showed a Papp of less than 1 ×10⁻⁶ cm/s. With C[C@H](Nc1nc(N[C@H](C)C(F)(F)F)nc(-c2cccc(Cl)n2)n1)C(F)(F)F the Papp was 122 ×10⁻⁶ cm/s. O=C(Nc1ncc([N+](=O)[O-])s1)c1ccccc1O showed a Papp of 8 ×10⁻⁶ cm/s. For CN(C)CC1CCOC1(c1ccccc1)c1ccccc1 (configuration not stated), the Papp was 47 ×10⁻⁶ cm/s. CC1(C#N)CCN(c2c(C(=O)N3CCN(S(C)(=O)=O)CC3)cnc3ccc(F)cc23)CC1 showed a Papp of 19 ×10⁻⁶ cm/s. With Cc1[nH]c2ccccc2c1CCNCc1ccc(C=CC(=O)NO)cc1 the Papp was less than 1 ×10⁻⁶ cm/s. Cn1nnnc1Sc1ncnc2scc(-c3ccc(Br)cc3)c12 gave a Papp of 159 ×10⁻⁶ cm/s. In the case of CCC[C@@H](NC(=O)N1C(=O)C(CC)(CC)[C@@H]1Oc1ccc(C(=O)N2CCN(C)CC2)cc1)c1ccc2c(c1)OCO2, the Papp is reported as greater than 300 ×10⁻⁶ cm/s. Compound COc1ccc(Cn2c(-c3ccccc3)c(-c3ccccc3)c3c(=N)n(N4CCOCC4)cnc32)cc1 has a Papp of 160 ×10⁻⁶ cm/s. With CC(C)N(CCCNC(=O)Nc1ccc(C(C)(C)C)cc1)C[C@H]1O[C@@H](n2cc(Br)c3c(N)ncnc32)[C@H](O)[C@@H]1O the Papp was 6.2 ×10⁻⁶ cm/s.

Source: PubChem BioAssay AID1845228
